Measured values reported in article PMC8958506, “Site-Specific Isopeptide Bond Formation: A Powerful Tool for the Generation of Potent and Nontoxic Antimicrobial Peptides” (Journal of Medicinal Chemistry, 2022).
In brackets after ≈: the same amount, converted by molar mass. Starred links: 1 amine or outer side, 2 acyl side, 3 side chain; linkers in the order of their positions; H or OH if unused. Positions of bridges follow the written chain, without caps; N, C: chain ends. Non-standard residues stand in square brackets, D forms with d. Residues, ends and D or L forms follow the SMILES beside them. Groups on a side chain read outwards from the residue. Chains are numbered I, II in the order given. εLys = N[C@@H](CCCCN[*:1])C(=O)[*:2]

Columns and labels:
B. subtilis ATCC 6051 = assay type: cell-based, Bacillus subtilis; settings: ATCC 6051, 24 h
Procedure: (§1) For our experiments, we used strains obtained from the American Type Culture Collection (ATCC), including P. aeruginosa PAO1, E. coli K12 parental type, S. aureus ATCC 6538P, and B. subtilis ATCC 6051. The MIC assays were performed as reported by Wiegand et al. using the broth microdilution method in 96-well round-bottom microplates.[35] The MIC was defined as the lowest concentration at which no bacterial growth was observed. Briefly, bacteria were inoculated into Mueller Hinton broth (MHB), cultured overnight at 37 °C, and transferred to a new MHB until the exponential phase of growth. The bacteria were diluted to 1 × 10^6 CFU/mL using MHB, and the peptides were prepared in double-distilled water (DDW) filtered over a 0.25 μm filter. To 50 μL of the MHB medium containing two fold serially diluted peptides with concentrations ranging from 1.56 to 50 μM were added 50 μL aliquots of the bacterial solution. The plates were incubated for 24 h at 37 °C. The positive and negative controls used were cultured without peptides (100% growth) and uninoculated MHB broth (0% growth). The bacterial growth inhibition was evaluated by measuring the absorbance at 600 nm using a microplate autoreader (SynersyMx, Biotek).

S. aureus ATCC 6538P = assay type: cell-based, Staphylococcus aureus; settings: ATCC 6538, 24 h
Procedure: as §1

P. aeruginosa PAO1 = assay type: cell-based, Pseudomonas aeruginosa; settings: PAO1, 24 h
Procedure: as §1

trypsin = trypsin 10 μg/mL, peptide 100 μM in PBS pH 7.4, after 30 min of incubation; RP-HPLC peak area relative to t0
Procedure: Proteolysis was measured by RP-HPLC using the following parameters, as reported.[33] Trypsin with a final concentration of 10 μg/mL was added to a solution of the peptides in PBS (pH 7.4) (100 μM). The reaction was monitored over time using reversed-phase HPLC (C18 reversed-phase Bio-Rad analytical column, 250 × 4 mm, 300 Å pore size, and 7 μm particle size). The column was eluted in 40 min using a linear gradient of 10–90% acetonitrile in water, both containing 0.1% trifluoroacetic acid (v/v), at a flow rate of 0.6 mL/min.

SMILES | MIC (B. subtilis ATCC 6051) | MIC (S. aureus ATCC 6538P) | MIC (P. aeruginosa PAO1) | peptide remaining intact with trypsin (trypsin)
CC(C)C[C@H](NC(=O)[C@H](CC(C)C)NC(=O)[C@@H](N)CCCCNC(=O)[C@H](CC(C)C)NC(=O)[C@H](CC(C)C)NC(=O)[C@H](CCCCN)NC(=O)[C@H](CCCCN)NC(=O)[C@H](CC(C)C)NC(=O)[C@H](CC(C)C)NC(=O)[C@H](CCCCN)NC(=O)[C@H](CCCCN)NC(=O)[C@H](CC(C)C)NC(=O)[C@H](CC(C)C)NC(=O)[C@H](CCCCN)NC(=O)[C@@H](N)CC(C)C)C(N)=O [Amp1EP13] (H-LKLLKKLLKKLL[εLys]LL-NH2) | 1.56 µM (≈ 2.82 µg/mL) | 1.56 µM (≈ 2.82 µg/mL) | 1.56 µM (≈ 2.82 µg/mL) | –
CC(C)C[C@H](NC(=O)[C@H](CC(C)C)NC(=O)[C@H](CCCCN)NC(=O)[C@H](CC(C)C)NC(=O)[C@H](CC(C)C)NC(=O)[C@H](CCCCN)NC(=O)[C@H](CCCCN)NC(=O)[C@H](CC(C)C)NC(=O)[C@H](CC(C)C)NC(=O)[C@@H](N)CCCCNC(=O)[C@H](CCCCN)NC(=O)[C@H](CC(C)C)NC(=O)[C@H](CC(C)C)NC(=O)[C@H](CCCCN)NC(=O)[C@@H](N)CC(C)C)C(N)=O [Amp1EP6] (I: H-KLLKKLLKLL-NH2 / II: H-LKLLK; amide I:1-II:C) | 1.56 µM (≈ 2.82 µg/mL) | 1.56 µM (≈ 2.82 µg/mL) | 1.56 µM (≈ 2.82 µg/mL) | –
CC(C)C[C@H](NC(=O)[C@H](CC(C)C)NC(=O)[C@H](CCCCN)NC(=O)[C@H](CC(C)C)NC(=O)[C@H](CC(C)C)NC(=O)[C@H](CCCCN)NC(=O)[C@H](CCCCN)NC(=O)[C@H](CC(C)C)NC(=O)[C@H](CC(C)C)NC(=O)[C@H](CCCCN)NC(=O)[C@@H](N)CCCCNC(=O)[C@H](CC(C)C)NC(=O)[C@H](CC(C)C)NC(=O)[C@H](CCCCN)NC(=O)[C@@H](N)CC(C)C)C(N)=O [Amp1EP5] (H-K([Leu-Leu-Lys-Leu])KLLKKLLKLL-NH2) | 1.56 µM (≈ 2.82 µg/mL) | 3.12 µM (≈ 5.63 µg/mL) | 3.12 µM (≈ 5.63 µg/mL) | –
CC(C)C[C@H](NC(=O)[C@H](CC(C)C)NC(=O)[C@H](CCCCN)NC(=O)[C@H](CC(C)C)NC(=O)[C@H](CC(C)C)NC(=O)[C@H](CCCCN)NC(=O)[C@@H](N)CCCCNC(=O)[C@H](CC(C)C)NC(=O)[C@H](CC(C)C)NC(=O)[C@H](CCCCN)NC(=O)[C@H](CCCCN)NC(=O)[C@H](CC(C)C)NC(=O)[C@H](CC(C)C)NC(=O)[C@H](CCCCN)NC(=O)[C@@H](N)CC(C)C)C(N)=O [Amp1EP9] (H-LKLLKKLL[εLys]KLLKLL-NH2) | 3.12 µM (≈ 5.63 µg/mL) | 6.25 µM (≈ 11.3 µg/mL) | 3.12 µM (≈ 5.63 µg/mL) | 40%
CC(C)C[C@H](NC(=O)[C@H](CC(C)C)NC(=O)[C@H](CCCCN)NC(=O)[C@H](CC(C)C)NC(=O)[C@H](CC(C)C)NC(=O)[C@@H](N)CCCCNC(=O)[C@H](CCCCN)NC(=O)[C@H](CC(C)C)NC(=O)[C@H](CC(C)C)NC(=O)[C@H](CCCCN)NC(=O)[C@H](CCCCN)NC(=O)[C@H](CC(C)C)NC(=O)[C@H](CC(C)C)NC(=O)[C@H](CCCCN)NC(=O)[C@@H](N)CC(C)C)C(N)=O [Amp1EP10] (H-LKLLKKLLK[εLys]LLKLL-NH2) | 3.12 µM (≈ 5.63 µg/mL) | 3.12 µM (≈ 5.63 µg/mL) | 3.12 µM (≈ 5.63 µg/mL) | –
CC(C)C[C@H](NC(=O)[C@H](CC(C)C)NC(=O)[C@H](CCCCN)NC(=O)[C@H](CC(C)C)NC(=O)[C@H](CC(C)C)NC(=O)[C@H](CCCCN)NC(=O)[C@H](CCCCN)NC(=O)[C@H](CC(C)C)NC(=O)[C@H](CC(C)C)NC(=O)[C@H](CCCCN)NC(=O)[C@H](CCCCN)NC(=O)[C@H](CC(C)C)NC(=O)[C@H](CC(C)C)NC(=O)[C@@H](N)CCCCNC(=O)[C@@H](N)CC(C)C)C(N)=O [Amp1EP2] (H-K(Leu)LLKKLLKKLLKLL-NH2) | 1.56 µM (≈ 2.82 µg/mL) | 1.56 µM (≈ 2.82 µg/mL) | 1.56 µM (≈ 2.82 µg/mL) | –
CC(C)C[C@H](NC(=O)[C@H](CC(C)C)NC(=O)[C@H](CCCCN)NC(=O)[C@H](CC(C)C)NC(=O)[C@H](CC(C)C)NC(=O)[C@H](CCCCN)NC(=O)[C@H](CCCCN)NC(=O)[C@H](CC(C)C)NC(=O)[C@H](CC(C)C)NC(=O)[C@H](CCCCN)NC(=O)[C@H](CCCCN)NC(=O)[C@H](CC(C)C)NC(=O)[C@H](CC(C)C)NC(=O)[C@H](CCCCN)NC(=O)[C@@H](N)CC(C)C)C(N)=O [Amp1L, reference compound] (H-LKLLKKLLKKLLKLL-NH2) | 12.5 µM (≈ 22.6 µg/mL) | 12.5 µM (≈ 22.6 µg/mL) | 12.5 µM (≈ 22.6 µg/mL) | neither the parental peptide Amp1L nor any of the other modified peptides were detected
